Assay results as given in ChEMBL document CHEMBL3507680, “University of Dundee, Gates Library screen for HepG2 cell viability”.

Experiment: Human HepG2 cell viability assay in 384 well format
Format: toxicity, cell-based
Design: dose 125 nL, time 70.5 hour; concentration not given beside the values
Conditions: HepG2 cells, read-out: Inhibition

Row | Compound | cytotoxicity at 70.5 h
1 | Cc1nnc([C@@]23CCO[C@@H]2CCN(Cc2ccc4c(c2)OCO4)C3)o1 | -2.95%
2 | CN(C)C(=O)C1CCC2(CCN(C(=O)Nc3ccc(F)cc3)CC2)O1 (stereo unspecified) | -12.4%
3 | CC1c2ncc(COc3cccnc3)n2CCN1Cc1ccco1 (stereo unspecified) | -12.4%
4 | CN1CCN(S(=O)(=O)C2CC2)Cc2cccnc21 | -0.334%
5 | O=C(c1ccsc1)N1CCC2(CC1)CCN(S(=O)(=O)C1CC1)CC2 | -9.77%
6 | COCC1CN(CCc2ccc(OC)c(OC)c2)Cc2c1cnn2C (stereo unspecified) | -8.2%
7 | CC(C)n1cnc(-c2nc(C(=O)NC3CC3)c3ccccn23)c1 | -15.8%
8 | COCc1cnc2n1CCN(C(=O)c1cc3ccccc3o1)C2C (stereo unspecified) | 18.8%
9 | COCc1cnc2n1CCN(C(=O)c1oc3ccccc3c1C)C2C (stereo unspecified) | 18.3%
10 | COCc1cnc2n1CCN(C(=O)c1cnc3ccccc3c1)C2C (stereo unspecified) | -9.53%
11 | Cn1cccc1C(=O)N1C[C@H](OCC2CCOCC2)[C@H]2COC[C@H]21 | -10.8%
12 | Cc1cccc(S(=O)(=O)N2CCC3(CC2)CC(N(C)C)CO3)c1 (stereo unspecified) | -10.7%
13 | CCc1cnc(N2CC3(CCN(S(=O)(=O)C4CC4)C3)C2)nc1 | -8.49%
14 | O=C(NCC1CC1)[C@@H]1CC[C@@H]2[C@@H](CCN2CCOCc2ccccc2)O1 | -9.94%
15 | c1csc(CNCC2COCc3c(-c4ccsc4)nnn3C2)n1 (stereo unspecified) | -7.15%
16 | CC(=O)N1CCC(c2nnc3ccc(C(=O)NCCN(C)C)cn23)C1 (stereo unspecified) | -10.5%
17 | CNC(=O)CN1CCOCC2(C1)CN(Cc1csnn1)CCO2 (stereo unspecified) | 12.8%
18 | Cc1cc(C(=O)N2CCc3ncc(CN4CCCCC4)n3CC2)no1 | 21.9%
19 | CNC(=O)[C@H]1C[C@@H]2CN(C(=O)NC(C)C)C[C@H]1O2 | 23%
20 | CC(C)CN1C[C@@H]2CN(c3cnccn3)C[C@@H]2C1=O | 29.2%
21 | Cc1cnc(N2CCOC3(COCCN(c4nccs4)C3)C2)nc1 (stereo unspecified) | -4.6%
22 | O=C1[C@H]2CN(c3cnccn3)C[C@H]2CN1CC1CC1 | -12.5%
23 | Cn1cnc(-c2nc(C(=O)NC3CC3)c3ccccn23)c1 | -1.89%
24 | Cc1cnc(N2CCCC3(COCCN(c4nccs4)C3)C2)nc1 (stereo unspecified) | -8.41%
25 | CN(C)C(=O)CO[C@H]1CO[C@@]2(CCN(S(C)(=O)=O)C2)C1 | -6.98%
26 | CN(C)C(=O)CO[C@H]1CO[C@@]2(CCN(Cc3ccoc3)C2)C1 | -5.9%

Row | Compound | cytotoxicity at 70.5 h
27 | Cn1cnc(-c2nc(C(=O)NCC3CCCO3)c3ccccn23)c1 (stereo unspecified) | -0.333%
28 | CNC(=O)[C@@H]1C[C@H]2CN(Cc3ccc(C)o3)C[C@H]2N1C(C)=O | -0.0424%
29 | COc1cc(N2CCC3(CC2)C(c2ccncc2)CC(=O)N3C)ncn1 (stereo unspecified) | -9.06%
30 | Cn1cc(N2C(=O)C[C@@H]3[C@@H]2CCN3C(=O)c2ccco2)cn1 | -6.04%
31 | CCC(O)CNc1ccc(-c2nc(CC(C)C)no2)cn1 (stereo unspecified) | -14.3%
32 | CCC(CO)N(Cc1ccc(C(=O)O)cc1)Cc1ccsc1 (stereo unspecified) | -5.5%
33 | CC(=O)N1CC[C@]2(O)CCN(Cc3nc(C)c[nH]3)C[C@@H]2C1 | 9.69%
34 | COc1ccc(Cn2c(CCc3c(C)n[nH]c3C)n[nH]c2=O)cc1 | -3.26%
35 | Cc1nc(-c2ccncc2)ncc1C(C)NC(=O)CN1CCOC1=O (stereo unspecified) | -5.31%
36 | Cc1nn(C)c2nc(N3CCNC(=O)C3Cc3ccccc3)sc12 (stereo unspecified) | -2.78%
37 | Cn1cccc1-c1cc(C(=O)N2CCCC2c2nccs2)[nH]n1 (stereo unspecified) | -0.138%
38 | CC(C)N1CCCC2(CCN(C(=O)COCC(F)(F)C(F)F)C2)C1=O (stereo unspecified) | -3.34%
39 | c1cc(CN(CCCn2ccnc2)Cc2ccoc2)ccn1 | -4.93%
40 | Cc1cc(CN2CCC(C3CCN(Cc4cccnc4)CC3)C2)[nH]n1 (stereo unspecified) | -6.23%
41 | CSCC[C@@H](CO)Nc1ccc(-c2nc(-c3ccccc3F)no2)cn1 | -6.28%
42 | Cc1cccnc1CCNC(=O)CC1C(=O)NCCN1CCC(C)C (stereo unspecified) | 19.9%
43 | O=C1C[C@H]2CC[C@@H](CN1)N2C1CSCCSC1 | 17.4%
44 | COc1ccccc1OC1CN(Cc2ccc(C(=O)O)cc2)C1 | -8.2%
45 | Cc1ncc(CC(=O)N2CCC3(CCC(=O)N(CCO)C3)CC2)c(=O)[nH]1 | -13.5%
46 | CCCn1ncc(-c2ccnc(NC3CCSC3)n2)c1C (stereo unspecified) | -12.7%
47 | COCCN(CCOC)C(=O)c1c[nH]nc1-c1cccc(F)c1 | 0.751%
48 | Cc1nccc(NCc2cc3n(n2)CCCN(C(=O)C2CCC2)C3)n1 | 13.7%
49 | CCCOc1cccc(-c2nc3c([nH]2)CCNC3)c1 | 5.31%
50 | CSc1nnc(CC2CCN(C(=O)CCc3cccnc3)CC2)n1C | -8.7%
51 | CNC(=O)c1cc2c(s1)CCN(C(=O)CCC1CCCN(C)C1)C2 (stereo unspecified) | -7.22%
52 | O=C(CN1CCOCC1)N1CCC(c2cc(N3CCCC3)ncn2)CC1 | -3.77%

Row | Compound | cytotoxicity at 70.5 h
53 | COc1ccc(-n2cc(CCO)cn2)cc1C | -9.33%
54 | CN1C(=O)C2(CCNCC2)c2cc(F)ccc21 | -4.69%
55 | CN1C(=O)C2(CCN(S(C)(=O)=O)CC2)c2cc(F)ccc21 | -3.04%
56 | CN1CCN(S(=O)(=O)c2ccccc2)Cc2cccnc21 | -4.28%
57 | Cc1cc(C(=O)N2CCC3(CC2)C(=O)N(C)CCN3CC2CC2)c(C)o1 | -2.24%
58 | Cc1ccc(C(=O)N2CCC3(CCN3Cc3ccc(F)cc3)C2)cn1 (stereo unspecified) | -8.15%
59 | CCS(=O)(=O)Nc1ccc2c(c1)C1(CCOCC1)CN2C | -1.55%
60 | CNC(=O)c1cc2c(nc1N(C)C)CCN(c1ncc(C)cn1)CC2 | -6.83%
61 | CCOC[C@]12COC[C@H]1CN(Cc1ccc(F)c(F)c1)C2 | -4.64%
62 | COCc1cnc2n1CCN(C(=O)c1ccc3ccccc3n1)C2C (stereo unspecified) | -8.35%
63 | CNC(=O)[C@H]1CC[C@@H]2[C@@H](CCN2CCOCc2ccccc2)O1 | -12.3%
64 | O=C(NCCc1cccs1)[C@]12COC[C@H]1CN(c1ncccn1)C2 | -13.7%
65 | O=C(NC1CCC1)[C@@H]1CC[C@@H]2[C@@H](CCN2CCc2ccccc2)O1 | -13.9%
66 | Cc1nc(CO[C@H]2CN(C(=O)c3ccc[nH]3)[C@@H]3COC[C@H]23)cs1 | -13%
67 | CCN(C(=O)c1ccc2nnc(C3CCN(C)C3)n2c1)C(C)C (stereo unspecified) | -11.3%
68 | O=C(c1ccco1)N1CC[C@H]2[C@H]1CC(=O)N2c1cccnc1 | 21.7%
69 | CN(C)C(=O)CO[C@H]1CO[C@@]2(CCN(Cc3ccsc3)C2)C1 | -6.3%
70 | Cc1cccc(CN2CCCC3(CCN(CC4CCCO4)CC3)C2)n1 (stereo unspecified) | -11.4%
71 | Cc1csc(CN2CCn3c(COc4cccnc4)cnc3C2C)n1 (stereo unspecified) | -9.58%
72 | CCn1ncc2c1CN(CCc1cccc(Cl)c1)CC2COC (stereo unspecified) | -8.31%
73 | O=C(NCCc1cccs1)[C@]12COC[C@H]1CN(Cc1ccccn1)C2 | 39.1%
74 | CN(Cc1cccnc1)C[C@H]1OC[C@@H]2CCN(C(=O)C3CC3)C[C@@H]21 | -9.16%
75 | Cc1ccc(CN2CC[C@H]3[C@H](CO[C@H]3CN(C)C)C2)o1 | -11.7%
76 | Cn1cc(N2CC[C@@H]3CN(Cc4ccncc4)C[C@H]3C2=O)cn1 | 2.33%
